We go through 12 molecules from patent US20240140952A1, “INHIBITORS AND DEGRADERS OF JANUS KINASE 2” (H. LEE MOFFITT CANCER CENTER AND RESEARCH INSTITUTE, INC., priority 2021, published 2024).

Like-named read-outs stand apart in the source and are kept apart here.

The target in experiment [1] is JAK2 (Homo sapiens (Human), UniProt O60674). Briefly: Radiometric assay of enzymatic JAK2 activity by Reaction Biology Corp. The class given is biochemical.
The target of experiment [2] is T1, JAK2 KD (Homo sapiens (Human), UniProt O60674). Kind of experiment: Differential scanning fluorimetry (DSF) binding studies with purified JAK2 KD.
Excerpt: To assess the suitability of purified JAK2 KD for SAR studies for drug development campaigns, three series of JAK2 inhibitors (FIG. 2A-C) were subjected to binding studies by differential scanning fluorimetry (DSF).
The subject of experiment [3] is UKE-1 cells. Briefly: UKE-1 cell viability assay (CellTiter Blue). The following applies: UKE1, 72 h, read-out: UKE-1 cell growth inhibition IC50.
Description: Suspension cells were seeded at 20,000 cells per well. […] Cell viability data were analyzed using GraphPad Prism6.
The target in experiment [4] is T1, JAK2 KD. Kind of experiment: Transient expression of JAK2 KD in Expi293F cells, immunoblot densitometry. The class given is cell-based. As for the experimental part:
The construct was expressed using a CMV promoter and contained a Hiss N-terminal affinity tag followed by a TEV cleavage site. Expi293F cells (Invitrogen) were grown, maintained, and treated in shaking culture at 37° C. with 8% CO2 in Expi293 medium (Invitrogen). Recombinant JAK2 was expressed in Expi293F cells using Transporter 5 transfection reagent as described by the manufacturer (PolySciences). One hour after adding the plasmid:transfection complex, varying concentrations of JAK2 inhibitor or transcription enhancer were added. The transfection proceeded for 24 hours before harvest.
Previously, JAK2 KD has been predominantly purified from insect cells; but this process takes several weeks to generate and amplify the baculovirus to produce large enough quantities of purified protein.
(Immunoblotting shows a protein as a band on a membrane.)

For experiment [5], the target named is SRC (Homo sapiens (Human), UniProt P12931). Conditions: selectivity; cited from earlier work.
Where [6] appears, read: read-out: Biochemical inhibition IC50.
Setting [7] is: radiometric assay, ± SD from two data sets, read-out: Biochemical inhibition IC50.

Sequence of JAK2 (O60674 whole entry): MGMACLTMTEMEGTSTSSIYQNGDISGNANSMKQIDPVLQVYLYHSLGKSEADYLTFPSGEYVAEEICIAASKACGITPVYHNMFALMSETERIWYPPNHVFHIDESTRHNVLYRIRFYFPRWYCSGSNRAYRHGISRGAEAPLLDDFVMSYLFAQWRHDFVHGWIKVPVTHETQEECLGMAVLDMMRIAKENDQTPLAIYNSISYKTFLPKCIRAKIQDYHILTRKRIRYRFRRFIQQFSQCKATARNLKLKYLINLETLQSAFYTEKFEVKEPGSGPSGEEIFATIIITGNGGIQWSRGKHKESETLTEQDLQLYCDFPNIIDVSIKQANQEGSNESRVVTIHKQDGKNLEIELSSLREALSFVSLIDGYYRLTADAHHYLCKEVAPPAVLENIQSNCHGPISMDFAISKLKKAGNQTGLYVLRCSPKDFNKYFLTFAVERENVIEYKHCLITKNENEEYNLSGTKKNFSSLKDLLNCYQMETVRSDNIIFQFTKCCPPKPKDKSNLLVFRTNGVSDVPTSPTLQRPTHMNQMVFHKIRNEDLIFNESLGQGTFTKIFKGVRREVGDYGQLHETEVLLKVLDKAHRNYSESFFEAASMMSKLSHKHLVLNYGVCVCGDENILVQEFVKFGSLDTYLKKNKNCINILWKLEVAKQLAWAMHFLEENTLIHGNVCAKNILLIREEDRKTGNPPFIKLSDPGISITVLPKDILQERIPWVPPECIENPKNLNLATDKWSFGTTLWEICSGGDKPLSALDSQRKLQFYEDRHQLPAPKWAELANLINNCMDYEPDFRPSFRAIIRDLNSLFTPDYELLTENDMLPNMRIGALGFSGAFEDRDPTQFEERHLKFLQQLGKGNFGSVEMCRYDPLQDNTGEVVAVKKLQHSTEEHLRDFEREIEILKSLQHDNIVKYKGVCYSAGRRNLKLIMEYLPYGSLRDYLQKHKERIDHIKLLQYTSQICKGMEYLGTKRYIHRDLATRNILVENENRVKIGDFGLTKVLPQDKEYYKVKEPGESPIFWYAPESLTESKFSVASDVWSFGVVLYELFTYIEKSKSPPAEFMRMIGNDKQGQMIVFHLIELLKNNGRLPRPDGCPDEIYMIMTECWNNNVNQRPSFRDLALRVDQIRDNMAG
T1 sequence (O60674 840-1132): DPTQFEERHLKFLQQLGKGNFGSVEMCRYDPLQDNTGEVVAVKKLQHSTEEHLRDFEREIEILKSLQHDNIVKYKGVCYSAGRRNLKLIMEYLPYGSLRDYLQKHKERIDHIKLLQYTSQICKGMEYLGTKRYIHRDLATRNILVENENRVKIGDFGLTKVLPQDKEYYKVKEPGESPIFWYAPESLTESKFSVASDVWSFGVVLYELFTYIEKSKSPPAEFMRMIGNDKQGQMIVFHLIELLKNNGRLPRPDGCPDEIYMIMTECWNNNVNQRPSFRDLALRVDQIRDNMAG
Sequence of SRC (P12931 whole entry, species assumed): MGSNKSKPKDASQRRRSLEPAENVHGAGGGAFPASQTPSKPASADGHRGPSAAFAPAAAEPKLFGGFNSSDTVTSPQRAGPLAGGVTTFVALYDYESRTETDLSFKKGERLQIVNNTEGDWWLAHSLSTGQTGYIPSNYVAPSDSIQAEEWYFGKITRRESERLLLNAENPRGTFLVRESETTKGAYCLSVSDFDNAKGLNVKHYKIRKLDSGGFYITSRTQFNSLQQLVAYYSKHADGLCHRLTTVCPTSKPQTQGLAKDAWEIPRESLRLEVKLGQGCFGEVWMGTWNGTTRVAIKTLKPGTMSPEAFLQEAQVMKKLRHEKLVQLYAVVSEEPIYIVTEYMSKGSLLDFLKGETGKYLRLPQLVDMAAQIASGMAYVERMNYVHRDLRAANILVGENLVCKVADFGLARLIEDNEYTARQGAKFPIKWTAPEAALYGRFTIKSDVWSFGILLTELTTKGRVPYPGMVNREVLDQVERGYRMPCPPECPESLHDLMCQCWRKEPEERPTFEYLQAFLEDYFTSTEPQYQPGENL

As a reminder, the IC50 is the concentration at which inhibition is half-maximal. As for `N#CC[C@@H](C1CCCC1)n1cc(-c2nc(Nc3ccc(C4CCNCC4)cc3)nc3[nH]ccc23)cn1` [(S)-1, (S)-3-Cyclopentyl-3-(4-(2-((4-(piperidin-4-yl)phenyl)amino)-7H-pyrrolo[2,3-d]pyrimidin-4-yl)-1H-pyrazol-1-yl)propanenitrile], the IC50 in experiment [1] (setting [6]) was found to be 0.099 ± 0.02 nM.

`N#CCC(C1CCCC1)n1cc(-c2nc(Nc3ccc(C4CCNCC4)cc3)nc3[nH]ccc23)cn1` (racemic) [(rac)-1]: the “Binding potential ΔTm” value in experiment [2] was found to be 11.8 ± 0.05 °C.

For `N#CC[C@H](C1CCCC1)n1cc(-c2nc(Nc3ccc(C4CCNCC4)cc3)nc3[nH]ccc23)cn1` [(R)-1, (R)-3-Cyclopentyl-3-(4-(2-((4-(piperidin-4-yl)phenyl)amino)-7H-pyrrolo[2,3-d]pyrimidin-4-yl)-1H-pyrazol-1-yl)propanenitrile], the IC50 in experiment [1] was below 0.15 nM; in experiment [1] (setting [6]), 0.15 ± 0.03 nM.

Consider `N#CCCn1cc(-c2nc(Nc3ccc(C4CCNCC4)cc3)nc3[nH]ccc23)cn1` [Compound 2, 3-(4-(2-((4-(Piperidin-4-yl)phenyl)amino)-7H-pyrrolo[2,3-d]pyrimidin-4-yl)-1H-pyrazol-1-yl)propanenitrile], for which the IC50 turned out to be 4500 ± 5900 nM in experiment [3] and 0.13 ± 0.048 nM in experiment [1] (setting [6]).

For the molecule `Cc1cnc(Nc2ccc(C3CCN(C)CC3)c(F)c2)nc1Nc1ccc(F)c(NS(=O)(=O)C(C)(C)C)c1` [Compound 4, N-(2-Fluoro-5-((2-((3-fluoro-4-(1-methylpiperidin-4-yl)phenyl)amino)-5-methylpyrimidin-4-yl)amino)phenyl)-2-methylpropane-2-sulfonamide], in experiment [1] (setting [7]), the IC50 was 6.5 ± 3.5 nM.

For `Cc1cnc(Nc2cc(F)c(C3CCN(C)CC3)c(F)c2)nc1Nc1ccc(F)c(NS(=O)(=O)C(C)(C)C)c1` [Compound 5, N-(5-((2-((3,5-Difluoro-4-(1-methylpiperidin-4-yl)phenyl)amino)-5-methylpyrimidin-4-yl)amino)-2-fluorophenyl)-2-methylpropane-2-sulfonamide], the IC50 in experiment [3] came out at 150 ± 10 nM; in experiment [1] (setting [7]), 8.2 ± 5.7 nM.

On to `C=CCCn1cc(-c2nc(Nc3ccc(C4CCNCC4)cc3)nc3[nH]ccc23)cn1` [Compound 3, 4-(1-(But-3-en-1-yl)-1H-pyrazol-4-yl)-N-(4-(piperidin-4-yl)phenyl)-7H-pyrrolo[2,3-d]pyrimidin-2-amine], for which the IC50 came to 620 ± 40 nM in experiment [3] and 0.26 ± 0.04 nM in experiment [1] (setting [7]).

On to `CCCC(CCC)C(=O)O` [valproic acid], for which the “JAK2 KD expression increase over ruxolitinib alone” value in experiment [4] (HDAC inhibitor during expression alongside ruxolitinib) is recorded as “four-fold”.

In the case of `Cc1cnc(Nc2ccc(OCCN3CCCC3)cc2)nc1Nc1cccc(S(=O)(=O)NC(C)(C)C)c1` [Fedratinib, reference compound], the IC50 in experiment [3] was 660 ± 60 nM.

`CCCC(=O)O` [butyric acid]: the “JAK2 KD expression increase over ruxolitinib alone” value in experiment [4] is given as “four-fold”.

In the case of `Cc1cnc(Nc2ccc(C3CCN(C)CC3)c(F)c2)nc1Nc1ccc2c(c1)N(S(=O)(=O)C(C)(C)C)CC2` [Compound 7, N^4-(1-(tert-Butylsulfonyl)indolin-6-yl)-N^2-(3-fluoro-4-(1-methylpiperidin-4-yl)phenyl)-5-methylpyrimidine-2,4-diamine], the half-inhibitory concentration (IC50) is 210 ± 20 nM in experiment [3] and 3.6 ± 1.1 nM in experiment [1] (setting [6]).

On to `N#CC[C@H](C1CCCC1)n1cc(-c2ncnc3[nH]ccc23)cn1` [Ruxolitinib, reference compound], for which the “Inhibitory activity for JAK2 over SRC” value in experiment [5] is reported as “three orders of magnitudes higher”.
